# According to article PMC8125615 (Molecules, 2021):
# Where two headings read alike, the source gives them in different places.
# Experiments:
# SARS CoV-2 M^pro = SARS CoV-2 M^pro (Severe acute respiratory syndrome coronavirus 2, UniProt P0DTD1); experiment: In vitro enzyme inhibition assay (SARS-CoV-2 main protease assay kit, fluorescence); assay type: biochemical
# Protocol: GC376 was used as a reference standard inhibitor.
# Briefly, 10 µL of test compounds of different concentrations were added into a 96-well plate followed by pipetting 30 µL of the diluted protease 15 µg/mL. The mixtures were incubated for 30 min at room temperature, and then 10 µL of the substrate was dissolved in the reaction buffer and added to reach a 50-µL final volume and 40-µM final concentration. The reaction mixture was then incubated for 4 h at 20 °C followed by measuring the produced fluorescence using a TECAN spark microplate-reading fluorimeter.
# SARS CoV M^pro = details: cited from earlier work
# [1] = SARS CoV-2 M^pro, fluorescence kit assay, GC376 as reference standard, read-out: IC50
SMILES,IC50 (SARS CoV-2 M^pro; [1]) [µM],IC50 (SARS CoV M^pro) [µM],IC50 (SARS CoV-2 M^pro) [µM]
CC1(C)CC[C@]2(C(=O)O)CC[C@]3(C)C(=CC[C@@H]4[C@@]5(C)C[C@@H](O)[C@H](O)C(C)(C)[C@@H]5CC[C@]43C)[C@@H]2C1 [maslinic acid],3.22 ± 0.26,–,–
C=C(C)[C@@H]1CC[C@]2(CO)CC[C@]3(C)[C@H](CC[C@@H]4[C@@]5(C)CC[C@H](O)C(C)(C)[C@@H]5CC[C@]43C)[C@@H]12 [betulin],89.7,–,–
C[C@H]1[C@H](C)CC[C@]2(C(=O)O)CC[C@]3(C)C(=CC[C@@H]4[C@@]5(C)CC[C@H](O)C(C)(C)[C@@H]5CC[C@]43C)[C@H]12 [ursolic acid],12.6 ± 0.28,–,–
C=C(C)[C@@H]1CC[C@]2(C(=O)O)CC[C@]3(C)[C@H](CC[C@@H]4[C@@]5(C)CC[C@H](O)C(C)(C)[C@@H]5CC[C@]43C)[C@@H]12 [betulinic acid],–,10,14.5 ± 1.3
